Data from ChEMBL document CHEMBL3885881, “DrugMatrix”.

Organism: Rattus norvegicus
Assay: DrugMatrix - Regimen: Daily Repeat
Format: toxicity, organism-based, Sprague-Dawley
Design: regimen Daily Repeat, gender Male, age 6-8 weeks
Conditions: in vivo, po, 25 mg/kg, route oral GAVAGE, dose level Low, […]; for ABSOLUTE BASOPHIL / ABSOLUTE EOSINOPHIL / ABSOLUTE LYMPHOCYTE / ABSOLUTE MONOCYTE / ABSOLUTE SEGMENTED NEUTROPHIL / BASOPHIL / EOSINOPHIL / ERYTHROCYTE COUNT / HEMATOCRIT / HEMOGLOBIN / LEUKOCYTE COUNT / LYMPHOCYTE / MEAN CORPUSCULAR HEMOGLOBIN / MEAN CORPUSCULAR HEMOGLOBIN CONCENTRATION / MEAN CORPUSCULAR VOLUME / MONOCYTE / NEUTROPHIL / NUCLEATED RED BLOOD CELLS / PLATELET COUNT: tissue Blood; for ALANINE AMINOTRANSFERASE / ALBUMIN / ALKALINE PHOSPHATASE / ASPARTATE AMINOTRANSFERASE / BLOOD UREA NITROGEN / CARBON DIOXIDE / CHLORIDE / CHOLESTEROL / CREATINE PHOSPHOKINASE / CREATININE / GLUCOSE / LACTATE DEHYDROGENASE / LIPASE / PHOSPHORUS / POTASSIUM / SODIUM / TOTAL BILIRUBIN / TOTAL PROTEIN / URIC ACID: tissue Plasma

## CC(C)C(Br)C(=O)NC(N)=O (stereo unspecified) [BROMISOVALUM]
72 h, time 3 day
  ABSOLUTE BASOPHIL: 0 CELLS/uL
  ABSOLUTE EOSINOPHIL: 72.33 CELLS/uL
  ABSOLUTE LYMPHOCYTE: 9251.33 CELLS/uL
  ABSOLUTE MONOCYTE: 35.67 CELLS/uL
  ABSOLUTE SEGMENTED NEUTROPHIL: 740.67 CELLS/uL
  BASOPHIL: 0%
  EOSINOPHIL: 0.67%
  ERYTHROCYTE COUNT: 5.09 x10E6/uL
  HEMATOCRIT: 32.1%
  HEMOGLOBIN: 12.97 G/DL
  LEUKOCYTE COUNT: 10.1 x10E3/uL
  LYMPHOCYTE: 91.67%
  MEAN CORPUSCULAR HEMOGLOBIN: 25.47 pg
  MEAN CORPUSCULAR HEMOGLOBIN CONCENTRATION: 40.4 G/DL
  MEAN CORPUSCULAR VOLUME: 63.03 fL
  MONOCYTE: 0.33%
  NEUTROPHIL: 7.33%
  NUCLEATED RED BLOOD CELLS: 0 /100WBC
  PLATELET COUNT: 1168.33 x10E3/uL
  ALANINE AMINOTRANSFERASE: 71.33 u/L
  ALBUMIN: 4.37 G/DL
  ALKALINE PHOSPHATASE: 465.67 u/L
  ASPARTATE AMINOTRANSFERASE: 81.33 u/L
  BLOOD UREA NITROGEN: 12.67 mg/dL
  CARBON DIOXIDE: 33.33 mmol/L
  CHLORIDE: 101 MEQ/L
  CHOLESTEROL: 83 mg/dL
  CREATINE PHOSPHOKINASE: 114.33 u/L
  CREATININE: 0.13 mg/dL
  GLUCOSE: 140.33 mg/dL
  LACTATE DEHYDROGENASE: 109.33 u/L
  LIPASE: 12.67 u/L
  PHOSPHORUS: 10.3 mg/dL
  POTASSIUM: 5.88 MEQ/L
  SODIUM: 149.4 MEQ/L
  TOTAL BILIRUBIN: 0.23 mg/dL
  TOTAL PROTEIN: 5.6 G/DL
  URIC ACID: 0.63 mg/dL
120 h, time 5 day
  ABSOLUTE BASOPHIL: 0 CELLS/uL
  ABSOLUTE EOSINOPHIL: 0 CELLS/uL
  ABSOLUTE LYMPHOCYTE: 11869 CELLS/uL
  ABSOLUTE MONOCYTE: 46.67 CELLS/uL
  ABSOLUTE SEGMENTED NEUTROPHIL: 851 CELLS/uL
  BASOPHIL: 0%
  EOSINOPHIL: 0%
  ERYTHROCYTE COUNT: 5.78 x10E6/uL
  HEMATOCRIT: 35.77%
  HEMOGLOBIN: 14.1 G/DL
  LEUKOCYTE COUNT: 12.77 x10E3/uL
  LYMPHOCYTE: 93%
  MEAN CORPUSCULAR HEMOGLOBIN: 24.37 pg
  MEAN CORPUSCULAR HEMOGLOBIN CONCENTRATION: 39.43 G/DL
  MEAN CORPUSCULAR VOLUME: 61.83 fL
  MONOCYTE: 0.33%
  NEUTROPHIL: 6.67%
  NUCLEATED RED BLOOD CELLS: 0 /100WBC
  PLATELET COUNT: 1234 x10E3/uL
  ALANINE AMINOTRANSFERASE: 59.67 u/L
  ALBUMIN: 4.33 G/DL
  ALKALINE PHOSPHATASE: 401 u/L
  ASPARTATE AMINOTRANSFERASE: 86.33 u/L
  BLOOD UREA NITROGEN: 12.67 mg/dL
  CARBON DIOXIDE: 27 mmol/L
  CHLORIDE: 103 MEQ/L
  CHOLESTEROL: 65 mg/dL
  CREATINE PHOSPHOKINASE: 275 u/L
  CREATININE: 0.14 mg/dL
  GLUCOSE: 162.67 mg/dL
  LACTATE DEHYDROGENASE: 114.33 u/L
  LIPASE: 9.67 u/L
  PHOSPHORUS: 12.73 mg/dL
  POTASSIUM: 6.6 MEQ/L
  SODIUM: 147.97 MEQ/L
  TOTAL BILIRUBIN: 0.2 mg/dL
  TOTAL PROTEIN: 6.17 G/DL
  URIC ACID: 1.7 mg/dL
